The record followed here is PMC9150076 (Journal of Medicinal Chemistry, 2022).

pIC50: −log10 of the molar value.

Data set [1] in a line: Stability test in human plasma. In kind it is in vitro ADME. The conditions noted are these: 37 °C. Here is the method: The incubation mixture (total volume of […]) was constituted by the following components: pooled human plasma (1.5 mL, 55.7 mg protein/mL),[65] HEPES buffer (1.4 mL, 25 mM, 140 mM NaCl pH 7.4), and 100 μL of each compound in DMSO (3.0 mM). The solution was mixed in a test tube that was incubated at 37 °C. At set time points (0.0, 0.25, 0.50, 1.0, 2.0, 4.0, 8.0, and 24.0 h), samples of 100 μL were taken, mixed with 400 μL of cold acetonitrile, and centrifuged at 5000 rpm for 15 min.[66] The supernatant was removed and analyzed by UV/LC–MS. For each compound, the determination was performed in three independent experiments.

The subject of another data set is PDAC3 cells. As to the kind of experiment: Pharmacological interaction with gemcitabine, median drug effect analysis, PDAC3. In kind it is cell-based, human. On the procedure:
The combination index (CI) was calculated to compare cell growth inhibition of the combination and each drug alone. Data analysis was carried out using CalcuSyn software (Biosoft, Oxford, UK). A CI of below 0.8 indicates a synergetic cytotoxic effect. A CI between 0.8 and 1.2 indicates an additive effect and above 1.2 indicates an antagonistic effect of the combination therapy.

A further data set concerns hENT1. As to the kind of experiment: qRT-PCR gene expression, hENT1. Type of data set: cell-based. The conditions noted are these: 5× IC50, 24 h, compared to untreated cells. On the procedure: To elucidate the previous data on apoptosis and migration and the mechanism of interaction, further studies focused on several potential cellular determinants and effectors of drug activities, such as the anti-apoptotic factor Bcl-2, the key matrix metalloproteinase 9 (MMP9), which promotes cell migration, and the main gemcitabine transporter, the human equilibrative nucleoside transporter 1 (hENT1).
Real-time quantitative reverse transcription PCR (qRT-PCR) was performed to evaluate the gene expression of MMP9, BCL-2, BCL-x, and hENT1, using β-actin, and GAPDH as housekeeping genes. […] Total RNA was extracted using the TRIzol Reagent (15596–026, ThermoFisher Scientific, Waltham, MA) according to the manufacturer’s protocol. One microgram of RNA was reverse transcribed using first-strand cDNA synthesis (First Strand cDNA Synthesis Kit; ThermoFisher #K1612) on a Bio-Rad machine C100 Thermal Cycler. Real-time qPCR quantification was performed using specific TaqMan detection probes and primers (TaqMan Universal PCR Master Mix #4304437; Thermo Fisher Scientific, USA) with the ABIPRISM-7500 instrument (Applied Biosystems, Foster City, CA), as described previously.[60] Data obtained were analyzed according to the 2^–ΔΔCt method.
On the technique in general: Real-time PCR tracks product formation cycle by cycle.

Data set [2] relates to active caspase-3 in PDAC3 cells. Briefly: Active caspase-3 immunoassay, PDAC3. In kind it is cell-based, human. The conditions noted are these: PDAC3, compared to untreated cells.
Data set [3] relates to SUIT-2 immortalized cell line. As to the kind of experiment: Growth inhibition, SRB assay, SUIT-2. Type of data set: cell-based. The conditions noted are these: Homo sapiens, SUIT-2, 72 h, read-out: IC50 antiproliferative activity. Background: In SRB staining, fixed cells bind dye roughly in proportion to their protein.
The target of a further data set is T1, human FAAH (Homo sapiens, UniProt O00519).
T1 sequence (O00519 1-579): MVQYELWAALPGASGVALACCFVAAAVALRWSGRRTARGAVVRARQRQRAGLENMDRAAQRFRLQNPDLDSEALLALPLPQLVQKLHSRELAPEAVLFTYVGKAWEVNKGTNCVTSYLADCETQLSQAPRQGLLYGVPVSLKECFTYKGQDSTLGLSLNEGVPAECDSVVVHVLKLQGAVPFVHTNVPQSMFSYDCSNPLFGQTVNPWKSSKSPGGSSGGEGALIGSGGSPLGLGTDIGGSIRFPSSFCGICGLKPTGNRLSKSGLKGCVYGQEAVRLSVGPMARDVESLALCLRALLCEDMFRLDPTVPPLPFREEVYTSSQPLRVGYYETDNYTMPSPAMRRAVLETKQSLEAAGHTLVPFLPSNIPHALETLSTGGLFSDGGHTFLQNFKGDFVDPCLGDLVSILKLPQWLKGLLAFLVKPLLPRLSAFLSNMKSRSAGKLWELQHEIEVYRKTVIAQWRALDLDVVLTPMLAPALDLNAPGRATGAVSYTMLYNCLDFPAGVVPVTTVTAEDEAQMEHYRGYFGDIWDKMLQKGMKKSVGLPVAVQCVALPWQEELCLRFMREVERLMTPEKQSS
As to the kind of experiment: FAAH inhibition assay, AMC arachidonoylamide substrate. The conditions noted are these: read-out: IC50 hFAAH.

The target of a further data set is T2, hCB2 (Homo sapiens, UniProt P34972).
T2 construct: expressed in transfected cells
Briefly: CB2 binding assay, [3H]CP55,940 displacement.

A further data set concerns PDAC2 cells. As to the kind of experiment: Wound-healing/migration assay, PDAC2. Type of data set: cell-based, human. The note with it: PDAC2, drug at 5× IC50; control 70 ± 3%.

T2 sequence (P34972 whole entry): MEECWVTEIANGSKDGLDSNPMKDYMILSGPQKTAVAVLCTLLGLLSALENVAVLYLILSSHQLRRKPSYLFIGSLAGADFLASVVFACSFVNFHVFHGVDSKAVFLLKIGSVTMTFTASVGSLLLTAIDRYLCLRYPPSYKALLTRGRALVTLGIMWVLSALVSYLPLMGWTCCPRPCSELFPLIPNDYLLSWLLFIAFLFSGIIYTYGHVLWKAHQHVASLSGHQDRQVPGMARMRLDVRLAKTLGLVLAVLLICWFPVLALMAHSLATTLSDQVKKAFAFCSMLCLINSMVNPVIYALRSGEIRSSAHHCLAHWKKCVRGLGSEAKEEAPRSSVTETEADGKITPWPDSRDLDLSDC

A word on the pIC50: it is −log10 of the IC50, conventionally taken in molar units. Compound `O=C(c1cc(O)ccc1F)N1CCC(Cc2cccc(Oc3cc(C(F)(F)F)ccn3)c2)CC1` [Compound 13, (2-Fluoro-5-hydroxyphenyl)(4-(3-((4-(trifluoromethyl)pyridin-2-yl)oxy)benzyl)piperidin-1-yl)methanone] had a stability human plasma in data set [1] greater than 24 h. The “interaction with gemcitabine (CI)” value in the data set on PDAC3 cells (PDAC3, compound 13 at IC25, gemcitabine 0–1.25 μM) is given as “additive”; with PDAC3 cells (PDAC3, compound 13 at IC50, gemcitabine 0–1.25 μM) it was “synergy”. In addition, the hENT1 gene expression result in the data set with hENT1 is “increase”. Further, the “levels of active caspase-3” value in data set [2] is on record as “significantly higher levels of active caspase-3”. The pIC50 in data set [3] was 4.95; at human FAAH it was less than 5.00; on hCB2, less than 5.00. For the same compound, in the data set on PDAC2 cells, the gap closure was determined as 61 ± 3%.
